The values below come from ChEMBL document CHEMBL1147280, “Isolation Of A Novel Cytotoxic Polyacetylene From A Traditional Anthelmintic Medicinal Plant, Minquartia guianensis” (J Nat Prod, 1989).

A short description of data set [1]: Toxicity in brine shrimp larvae. Type of data set: organism-based. The following applies: artemia, in vivo.
Another data set deals with P388. Put plainly: Cytotoxicity against mouse P388 cells. Type of data set: functional. The following applies: read-out: ED50 (the source's name).

Values after ≈ are worked out from the molar mass of the structure shown.

The LC50 is the concentration lethal to half of the exposed cells or organisms. The low end stands for a more lethal substance, the high end for a less lethal substance. Take `CC(O)C#CC#CC#CC#CCCCCCCCC(=O)O` (single isomer, unassigned; (-)): the LC50 in data set [1] came to 5.06 µg/mL (≈ 17.8 µM). Besides, the EC50 with P388 was 0.53 µg/mL (≈ 1.86 µM).
